For this assay, the system named is BDF1 mice, P388 leukemia ip, median survival T/C. The assay is described as follows: NCI In Vivo Anticancer Drug Screen. Data for tumor model P388 Leukemia (intraperitoneal) in B6D2F1 (BDF1) mice. The following applies: endpoint: median survival time, higher = longer survival. Summed up: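 T/C = treated-group survival ÷ vehicle-control survival; tumour transplanted into mice before dosing.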

T/C data for 12 compounds are collected here from PubChem BioAssay AID328 (DTP/NCI, 2004).

Values joined by “and” are separate entries in the source; they are usually repeats but may differ in a detail not shown here. Equal values may be shown once. Toxic doses and inconclusive results are not listed. Residues, ends and D or L forms follow the SMILES beside them. *: point of attachment. Bn = c1ccc(C*)cc1

For `COC(=O)C1Cc2c([nH]c3ccccc23)CN1` (stereo unspecified), the T/C reads like this: (dose: 10.0 mg/kg/injection, schedule: Q01DX009 (ip), vehicle: saline) 116 % of control; (dose: 10.0 mg/kg/injection, schedule: Q04DX003 (ip), vehicle: saline) 95 % of control; (dose: 20.0 mg/kg/injection, schedule: Q01DX009 (ip), vehicle: saline) 100 % of control; (dose: 20.0 mg/kg/injection, schedule: Q04DX003 (ip), vehicle: saline) 109 % of control; (dose: 40.0 mg/kg/injection, schedule: Q01DX009 (ip), vehicle: saline) 112 % of control; (dose: 40.0 mg/kg/injection, schedule: Q04DX003 (ip), vehicle: saline) 95 % of control.

Regarding `C(=N\N=C\c1c[nH]c2ccccc12)/c1c[nH]c2ccccc12`, the T/C is 89 % of control (dose: 100.0 mg/kg/injection, schedule: Q01DX009 (ip), vehicle: gum acacia); 108 % of control (dose: 100.0 mg/kg/injection, schedule: Q04DX003 (ip), vehicle: gum acacia); 89 % of control (dose: 200.0 mg/kg/injection, schedule: Q01DX009 (ip), vehicle: gum acacia); 95 % of control (dose: 200.0 mg/kg/injection, schedule: Q04DX003 (ip), vehicle: gum acacia); 96 % of control (dose: 400.0 mg/kg/injection, schedule: Q01DX009 (ip), vehicle: gum acacia); 100 % of control (dose: 400.0 mg/kg/injection, schedule: Q04DX003 (ip), vehicle: gum acacia).

On to `c1cc2c(cc1C1SCSCS1)OCO2`, for which the T/C was 90 % of control (dose: 100.0 mg/kg/injection, schedule: Q04DX003 (ip), vehicle: Klucel (hydroxypropylcellulose) (HPC)); 100 % of control (dose: 200.0 mg/kg/injection, schedule: Q04DX003 (ip), vehicle: Klucel (hydroxypropylcellulose) (HPC)); 100 % of control (dose: 400.0 mg/kg/injection, schedule: Q04DX003 (ip), vehicle: Klucel (hydroxypropylcellulose) (HPC)).

`O=C1c2c(Cl)c(Cl)c(Cl)c(Cl)c2C(=O)N1c1ccc(-c2ccccc2)cc1`: the T/C by setting is: (dose: 43.7 mg/kg/injection, schedule: Q01DX009 (ip), vehicle: saline with Tween-80) 101 % of control; (dose: 87.5 mg/kg/injection, schedule: Q01DX009 (ip), vehicle: saline with Tween-80) 101 % of control; (dose: 175.0 mg/kg/injection, schedule: Q01DX009 (ip), vehicle: saline with Tween-80) 99 % of control.

Consider `CCCC(=O)N(C)C(C)C(=O)OC1CC(=O)N(C)c2cc(cc(OC)c2Cl)C/C(C)=C/C=CC(OC)C2(O)CC(OC(=O)N2)C(C)C2OC12C` (stereo unspecified), for which the T/C (dose: 0.1 micrograms/kg/injection, schedule: Q01DX009 (ip), vehicle: saline + alcohol) is 97 % of control; the T/C (dose: 0.2 micrograms/kg/injection, schedule: Q01DX009 (ip), vehicle: saline + alcohol) is 93 % of control; the T/C (dose: 0.4 micrograms/kg/injection, schedule: Q01DX009 (ip), vehicle: saline + alcohol) is 104 % of control; the T/C (dose: 0.8 micrograms/kg/injection, schedule: Q01DX009 (ip), vehicle: saline + alcohol) is 96 % of control and 112 % of control; the T/C (dose: 0.8 micrograms/kg/injection, schedule: Q01DX009 (ip), vehicle: saline) is 104 % of control; the T/C (dose: 1.6 micrograms/kg/injection, schedule: Q01DX009 (ip), vehicle: saline + alcohol) is 102 % of control and 107 % of control. Also, the T/C by setting is: (dose: 1.6 micrograms/kg/injection, schedule: Q01DX009 (ip), vehicle: saline) 105 % of control; (dose: 3.1 micrograms/kg/injection, schedule: Q01DX009 (ip), vehicle: saline + alcohol) 88 % of control and 111 % of control; (dose: 3.1 micrograms/kg/injection, schedule: Q01DX009 (ip), vehicle: saline) 105 % of control; (dose: 6.2 micrograms/kg/injection, schedule: Q01DX009 (ip), vehicle: saline + alcohol) 92 % of control and 114 % of control; (dose: 6.2 micrograms/kg/injection, schedule: Q01DX009 (ip), vehicle: saline) 96 % of control; (dose: 12.5 micrograms/kg/injection, schedule: Q01DX009 (ip), vehicle: saline + alcohol) 113 % of control. The T/C by setting is: (dose: 12.5 micrograms/kg/injection, schedule: Q01DX009 (ip), vehicle: saline) 110 % of control; (dose: 25.0 micrograms/kg/injection, schedule: Q01DX009 (ip), vehicle: saline + alcohol) 97 % of control; (dose: 25.0 micrograms/kg/injection, schedule: Q01DX009 (ip), vehicle: saline) 107 % of control; (dose: 25.0 nanograms/kg/injection, schedule: Q## X009 (ip), vehicle: other) 94 % of control; (dose: 50.0 micrograms/kg/injection, schedule: Q01DX009 (ip), vehicle: saline + alcohol) 105 % of control and 122 % of control; (dose: 50.0 micrograms/kg/injection, schedule: Q01DX009 (ip), vehicle: saline) 116 % of control. Further, the T/C is 111 % of control (dose: 100.0 micrograms/kg/injection, schedule: Q01DX009 (ip), vehicle: saline + alcohol); 111 % of control and 117 % of control (dose: 200.0 micrograms/kg/injection, schedule: Q01DX009 (ip), vehicle: saline + alcohol); 88 % of control (dose: 200.0 nanograms/kg/injection, schedule: Q## X009 (ip), vehicle: other); 102 % of control (dose: 400.0 nanograms/kg/injection, schedule: Q## X009 (ip), vehicle: other).

On to `CCCCCCCCCCCCCCCC[N+](C)(C)C(C)c1ccc(OC)cc1` (stereo unspecified), for which the T/C (dose: 6.25 mg/kg/injection, schedule: Q04DX003 (ip), vehicle: saline with Tween-80) is 123 % of control.

As for `OC(Cc1cnc2ccccc2c1)(c1ccccc1)c1ccccc1`, the T/C (dose: 25.0 mg/kg/injection, schedule: Q04DX002 (ip), vehicle: saline with Tween-80) was 98 % of control and 103 % of control; the T/C (dose: 50.0 mg/kg/injection, schedule: Q04DX002 (ip), vehicle: saline with Tween-80) was 99 % of control and 117 % of control; the T/C (dose: 100.0 mg/kg/injection, schedule: Q04DX002 (ip), vehicle: saline with Tween-80) is 98 % of control and 103 % of control; the T/C (dose: 200.0 mg/kg/injection, schedule: Q04DX002 (ip), vehicle: saline with Tween-80) was 94 % of control and 99 % of control and 100 % of control; the T/C (dose: 400.0 mg/kg/injection, schedule: Q04DX002 (ip), vehicle: saline with Tween-80) is 98 % of control.

Consider `Cc1ccc2c[n+]3cc4ccccc4cc3cc2c1`, for which the T/C is 113 % of control (dose: 1.56 mg/kg/injection, schedule: Q01DX009 (ip), vehicle: saline); 113 % of control (dose: 4.5 mg/kg/injection, schedule: Q04DX003 (ip), vehicle: saline); 150 % of control (dose: 4.6 mg/kg/injection, schedule: Q01DX009 (ip), vehicle: saline); 86 % of control (dose: 9.0 mg/kg/injection, schedule: Q04DX003 (ip), vehicle: saline).

`C=C(Cl)CSCCCS`: the T/C runs as follows: (dose: 130.0 mg/kg/injection, schedule: Q01DX009 (ip), vehicle: saline) 95 % of control; (dose: 200.0 mg/kg/injection, schedule: Q01DX009 (ip), vehicle: saline) 104 % of control; (dose: 300.0 mg/kg/injection, schedule: Q01DX009 (ip), vehicle: saline) 118 % of control.

Turning to `NC(CSC(c1ccccc1)(c1ccccc1)c1ccccc1)C(=O)NCC(=O)O` (stereo unspecified), the T/C is 111 % of control (dose: 177.0 mg/kg/injection, schedule: Q01DX009 (ip), vehicle: saline with Tween-80) and 107 % of control (dose: 400.0 mg/kg/injection, schedule: Q01DX009 (ip), vehicle: saline with Tween-80).

In the case of `ClCCN(CCCN(CCCl)c1ccccc1)c1ccccc1`, the T/C reads like this: (dose: 100.0 mg/kg/injection, schedule: Q01DX001 (ip), vehicle: saline + alcohol) 118 % of control; (dose: 200.0 mg/kg/injection, schedule: Q01DX001 (ip), vehicle: saline with Tween-80) 156 % of control; (dose: 400.0 mg/kg/injection, schedule: Q01DX001 (ip), vehicle: saline + alcohol) 151 % of control; (dose: 400.0 mg/kg/injection, schedule: Q01DX001 (ip), vehicle: saline with Tween-80) 166 % of control; (dose: 800.0 mg/kg/injection, schedule: Q01DX001 (ip), vehicle: saline with Tween-80) 205 % of control.

Turning to `COC(=O)C(CC(C)C)NC(=O)C(N)Cc1ccc(OCc2ccccc2)cc1` (stereo unspecified) (H-Tyr(Bn)-Leu-OMe; configuration not given here), the T/C runs as follows: (dose: 12.5 mg/kg/injection, schedule: Q01DX009 (ip), vehicle: saline with Tween-80) 105 % of control; (dose: 25.0 mg/kg/injection, schedule: Q01DX009 (ip), vehicle: saline with Tween-80) 100 % of control; (dose: 50.0 mg/kg/injection, schedule: Q01DX009 (ip), vehicle: saline with Tween-80) 105 % of control and 120 % of control; (dose: 50.0 mg/kg/injection, schedule: Q04DX003 (ip), vehicle: saline with Tween-80) 105 % of control; (dose: 100.0 mg/kg/injection, schedule: Q01DX009 (ip), vehicle: saline with Tween-80) 105 % of control; (dose: 100.0 mg/kg/injection, schedule: Q04DX003 (ip), vehicle: saline with Tween-80) 100 % of control.
